Test results taken from patent EP0536603A1, “N-Methyl-nimodipine, process for its preparation, and its use as cerebral vasodilator” (BAYER AG, priority 1991, dated 1993).

How the values were obtained:
[1] = Plasma levels after oral administration; assay type: in vivo
Ratten = experiment: Rat swim test (Porsolt), antidepressant effect; assay type: in vivo; conditions: rats
Description: Die vorzügliche Eignung von N-Methyl-Nimodipin als Prodrug für Nimodipin zeigt sich auch in seiner antidepressiven Wirkung. Im Rattenschwimmtest (vgl. R.D. Porsolt et al., European Journal of Pharmacology 47; 379 bis 391) zeigen Ratten, die 20 mg der erfindungsgemäßen Verbindung per os appliziert bekommen, eine um ca. 20 % reduzierte Immobilitätsphase im Vergleich zur Kontrolle (n = 6).

| Compound | Plasmaspiegel von Nimodipin und bekannten Nimodipinmetaboliten ([1]; oral administration of N-Methyl-nimodipin, after 15 minutes, compared with plasma levels after multiple administration of corresponding amounts of Nimodipin) | Plasmakonzentration an unverändertem N-Methyl-Nimodipin ([1]; oral administration, same time point (15 minutes), relative to the plasma levels of Nimodipin and metabolites) | reduzierte Immobilitätsphase im Vergleich zur Kontrolle (Ratten; 20 mg per os, n = 6) | Immobilitätsphase im Rattenschwimmtest, in words (Ratten; corresponding amount of Nimodipin, compared with N-Methyl-Nimodipin) |
| --- | --- | --- | --- | --- |
| COCCOC(=O)C1=C(C)N(C)C(C)=C(C(=O)OC(C)C)C1c1cccc([N+](=O)[O-])c1 (racemic) [N-Methyl-nimodipin, (±)-1,2,6-Trimethyl-4-(3-nitrophenyl)-1,4-dihydropyridin-3,5-dicarbonsäure-isopropyl-2-methoxyethyl-ester] | mindestens so hoch sind wie die entsprechenden Plasmaspiegel nach Mehrfachapplikation entsprechender Nimodipinmengen | etwa doppelt so hohe Plasmakonzentration | ca. 20% | – |
| COCCOC(=O)C1=C(C)NC(C)=C(C(=O)OC(C)C)C1c1cccc([N+](=O)[O-])c1 (racemic) [Nimodipin, (±)2,6-Dimethyl-4-(3-nitrophenyl)-1,4-dihydropyridin-3,5-dicarbonsäure-isopropyl-2-methoxyethyl-ester] | – | – | – | vergleichbare Ergebnisse |
